From patent US20090082453A1, “Exogenous Methyl Dihydrojasmonate for Prevention and Control of Biotic Attack in Plants” (NEW BIOLOGY, INC., priority 2007, published 2009)
Blank lines part the entries; values can stand above or below the molecule they belong to.

Experiments:
[1] = tested on: aphids; test: Field study of aphid infestations in roses (Example 7); format: in vivo, aphids on 'Mr. Lincoln' roses; details: for concentration at which more efficacious against aphids: 1.5 mM vs 5 mM; for incidence of aphids on roses: foliar spray every 10-13 days, height of aphid pressure, FIGS. 7 and 8
Method: Potted roses of the cultivar ‘Mr. Lincoln’ were treated with 9 treatment samples (8 formulations and one untreated control). For each treatment sample, three plots having three plants each were treated, for a total of 9 plants per treatment. Roses were treated every 10-13 days by spraying the foliage of each plant to the point of drip to ensure maximum coverage. The plants were evaluated at approximately 10-day intervals for the number of aphids on each plant. Table 8 below includes the descriptions of the test formulations.
FIGS. 7 and 8 are two representations of the same data, taken at the height of aphid pressure. FIG. 7 is a histogram representing mean and SEM aphid counts on the roses with the various formulations. In FIG. 8, each data point represents the number of aphids on a single plant.

[2] = tested on: gene expression; details: tobacco plants; cited from earlier work
[3] = tested on: damping off disease; test: Observational decrease in disease in tomato seedlings (Example 8); format: in vivo; details: 1.5 mM MDHJ, 0.5% canola oil, 0.125% Triton X-100 foliar spray; 17th day after treatment
Method: FIG. 9 is a photograph of an untreated tomato seedling, illustrating the damping off disease on the leaves;
One group of tomato seedlings was treated with a formulation comprising 1.5 mM MDHJ, 0.5% canola oil, and 0.125% Triton® X-100 by spraying the foliage until the point of dripping. Another group of tomato seedlings was left untreated. Plants from each group were isolated in respective Plexiglas boxes. Photographs of the plants were taken on the 17th day after treatment. One plant in each treatment group had died.

[4] = tested on: Polyphenol Oxidase (PPO); test: Polyphenol oxidase (PPO) induction in tomato plants (Example 2); format: in vivo; details: tomato seedlings, 1.5 mM + 0.5% canola oil + 0.125% Triton X-100, 24 hours; FIG. 2
Method: Three test samples were prepared using tomato seedlings. The descriptions of the treatments given to each test sample can be found in Table 3 below.
Liquid formulations were applied by spraying three squirts to the foliage with a spray bottle. Seedlings from each treatment were isolated in plastic boxes (i.e., as in Example 1, plants given the same treatment were isolated together). Polyphenol oxidase assays were carried out on the entire foliage of each plant 24 hours after application (Stout, M. J., Brovont, R. A., and Duffey, S. S., J. Chemical Ecology 24:6, pp. 946-963, the contents of which are incorporated by reference in their entirety).
The assay procedure was as follows. Tomato leaflets were weighed and ground in 1 ml of ice-cold extraction buffer (0.1M sodium phosphate buffer, pH 7, containing 3.5% polyvinylpolypyrolidine). Following grinding, 0.4 ml of 10% Triton® X-100 was added to the leaf homogenate, mixed and centrifuged for 15 minutes at 2000×g at 4-degrees. Fifteen microliters of the resulting supernatant was added to 1 ml of PPO Assay Buffer (2.92 mM caffeic acid in pH 7 sodium phosphate buffer) and the change in absorbance at A470 was recorded every minute for 10 minutes. Change in absorbance rate (OD A470/min/g protein) reflects the rate of formation of a compound produced by the activity of PPO. […]

[5] = tested on: cell suspension cultures of E. californica; details: cited from earlier work
[6] = tested on: Polyphenol Oxidase; test: Activation of polyphenol oxidase in field-grown roses (Example 4); format: in vivo, 'Julia Child' roses; details: FIG. 5; for PPO activity: 5 mM + 0.5% canola oil + 0.125% Triton X-100, 44 hours, caffeic acid substrate
Method: Field grown 1-year old ‘Julia Child’ roses were treated with foliar sprays of two different formulations. Roses were treated by spraying the foliage of each plant to the point of drip to ensure maximum coverage. There were three plants per treatment. 44 hours after application, 3 young leaves from each plant (each leaf from a different stem and all leaves at the same stage of development) were collected and pooled for analysis of PPO activity as in Example 2 above, except that 0.5 ml of ice cold extraction buffer were used, followed by addition of 160 μl 10% Triton® X-100. 50 μl of the supernatant was added to 1 ml of PPO assay buffer. The formulations are set forth in Table 5 below, and the data is shown FIG. 5, a graph of PPO activity for the two formulations and an untreated control. Data are reported as mean and SEM for each treatment.

[7] = tested on: trypsin inhibitor; test: Activation of trypsin inhibitor in roses (Example 6); format: in vivo, white miniature roses (Parade Rose); details: 48 hours, FIG. 6; for proteinase (trypsin) inhibitor activity: 5.0 mM foliage spray plus root drench
Method: Potted plants of white miniature roses, marketed as Parade Rose® received one of three treatments. Roses were treated by (1) spraying the foliage of each plant to the point of drip to ensure maximum coverage; and (2) pouring 50 ml of the formulation into the soil within the root zone. There were three plants per treatment. 48 hours after treatment, all leaves from the entire plant were collected and pooled for analysis of trypsin inhibitor activity. Leaf extracts were prepared by adding 25 ml of 0.4 M sodium phosphate, pH 9, extraction buffer and 3 ml of 10% Triton® X-100 and grinding in a blender. The extract was filtered through four layers of cheesecloth. One milliliter of extract was spun at 2000×g for 15 minutes at 4-degrees and the resulting supernatant was frozen until the assay could be completed.
For the trypsin assay, rose extracts were thawed and replicates of 1, 2, and 3 μl for each extract were added to trypsin assay solution containing p-toluene-sulfonyl-L-arginine methyl ester (TAME) as the trypsin substrate. The level of trypsin activity was measured and reflects trypsin inhibition by trypsin inhibitor. Data is shown in FIG. 6, a graph of the results, and is presented as the mean and SEM of % remaining trypsin activity per gram fresh weight for 1, 2, and 3 μl. In FIG. 6, lower values represent greater trypsin inhibitor activity.

[8] = tested on: proteinase inhibitor I and II; test: Proteinase inhibitor I and II induction in tomato seedlings, radial immunodiffusion assay, 24 h (Example 1); format: in vivo; details: 1.5 mM in water, FIG. 1
Method: Seven test samples or groups were prepared using two week old tomato seedlings. The descriptions of the treatments given to each test sample can be found in Table 2 below. Liquid formulations were applied by spraying three squirts to the foliage with a spray bottle. Eight plants per treatment (four pots per treatment, each pot containing two seedlings) were sprayed with each test formulation. Plants from each treatment were isolated in enclosed Plexiglas boxes and placed overnight in a light- and temperature-controlled growth chamber (i.e., plants given the same treatment were isolated together in a single Plexiglas box; plants given different treatments were in different boxes). Twenty-four hours after treatment, each plant was assayed for proteinase inhibitor I and II production by a radial immunodiffusion assay using anti-inhibitor antibodies (Ryan, C. A., Analytical Biochemistry 19 (1967), pp. 424-440, the contents of which are incorporated by reference in their entirety). [table] The results for each of the test samples are shown in FIG. 1, a graph in which proteinase inhibitor levels (PI-I and PI-II) are reported in micrograms of proteinase inhibitor per milliliter of leaf extract for each test sample. The two plants per pot were pooled to give one data point per pot (i.e., four data points total were collected per treatment).

[9] = tested on: powdery mildew; test: Treatment and control of powdery mildew in roses (Example 10); format: in vivo, powdery mildew on 'Mr. Lincoln' roses; details: beyond disease levels measured prior to first treatment
Method: Outdoor potted roses of the cultivar ‘Mr. Lincoln’ were treated with 9 treatment samples (8 formulations and one untreated control). For each treatment sample, three plots having three plants each were treated for a total of 9 plants per treatment. Roses were treated every 2 weeks by spraying the foliage of each plant to the point of drip to ensure maximum coverage. Plants were initially evaluated for powdery mildew incidence and severity prior to the first treatment of the trial. […] Subsequent evaluations followed every 10 days for 2 months. Evaluations consisted of evaluating 60 individual leaves per plot (20 leaves were collected from 3 rose plants per plot) for disease incidence and severity. Disease incidence was determined by counting the number of leaves infected. Disease severity was determined as the percentage of leaf surface infected with the disease. Analysis of Variance was calculated for both severity and incidence. Table 11 below describes the mean number of leaves found to be infected with powdery mildew for each treatment group on respective evaluation days. […] FIG. 15 is a graph illustrating the percentage of leaves infected in each treatment group. In FIG. 15, the individual bars within each treatment represent successive evaluations on days 1, 11, 21, 31, 41, 52, and 62.

Compound: CCCCCC1C(=O)CCC1CC(=O)OC (stereo not shown) [MDHJ, methyl dihydrojasmonate]
concentration at which more efficacious against aphids [1]: more efficacious at the lower concentration of 1.5 mM
incidence of aphids on roses [1]: reduced aphid counts
bioactivity relative to MJ [2]: only a small fraction of the bioactivity of MJ
signs of disease in seedlings [3]: did not show signs of disease
activation of PPO [4]: activate PPO
concentration inducing benzo[c]phenanthridine alkaloid synthesis [5]: 10 µM
concentration relative to MJ required for the same effect [5]: five times the concentration of MJ required to produce the same effect
PPO activity [6]: increased PPO activity
elicitation of plant defenses (PPO) compared with MJ ([6]; field-grown roses, 5 mM, 44 hours): equal to or better than the levels seen after MJ application
proteinase (trypsin) inhibitor activity [7]: enhanced proteinase inhibitor activity
enhancement of proteinase inhibitor activity compared with MJ ([7]; 5.0 mM): to a greater degree than MJ
proteinase inhibitor level compared with wounding response [8]: much greater level than the plant's natural response to wounding
progression of powdery mildew incidence [9]: similarly effective in slowing the progression of powdery mildew incidence

PPO activity [6]: increased PPO activity
proteinase (trypsin) inhibitor activity [7]: enhanced proteinase inhibitor activity
Compound: CC/C=C\CC1C(=O)CCC1CC(=O)OC (stereo not shown) [MJ, methyl jasmonate, reference compound]
concentration at which more efficacious against aphids [1]: more efficacious at the higher concentration of 5 mM
incidence of aphids on roses [1]: reduced aphid counts
proteinase inhibitor level compared with wounding response [8]: much greater level than the plant's natural response to wounding
progression of powdery mildew incidence [9]: similarly effective in slowing the progression of powdery mildew incidence
